Holding throughout (assay type): in vivo
For data set [1], the system named is Tobacco Budworm (Heliothis virescens). Briefly: Tobacco Budworm control, 96-well microtiter plates with insect diet and eggs. To be noted: 2500ppm, sprayed onto insect diet, 5 days, in comparison with untreated controls; for mortality at 2500 ppm: Heliothis virescens, 120 h, read-out: mortality (Egg and larval mortality). As to the method: For evaluating control of Tobacco Budworm, the test unit consisted of 96-well-microtiter plates containing an insect diet and 15-25 H. virescens eggs. The compounds were formulated using a solution containing 75% v/v water and 25% v/v DMSO. Different concentrations of formulated compounds were sprayed onto the insect diet at 10µl, using a custom-built micro atomizer, at two replications. After application, microtiter plates were incubated at about 28 + 1°C and about 80 + 5 % relative humidity for 5 days. Egg and larval mortality was then visually assessed.

Data set [2] has as its system Green Peach Aphid (Myzus persicae) (mixed life stages). Briefly: Green Peach Aphid control through systemic means, artificial diet under artificial membrane. The following applies: for mortality at 2500 ppm: Myzus persicae, 72 h, read-out: mortality (Aphid mortality). The source says:
For evaluating control of Green Peach Aphid through systemic means the test unit consisted of 96-well-microtiter plates containing liquid artificial diet under an artificial membrane. The compounds were formulated using a solution containing 75% v/v water and 25% v/v DMSO. Different concentrations of formulated compounds were pipetted into the aphid diet, using a custom-built pipette, at two replications. After application, 5 - 8 adult aphids were placed on the artificial membrane inside the microtiter plate wells. The aphids were then allowed to suck on the treated aphid diet and incubated at about 23 + 1°C and about 50 + 5 % relative humidity for 3 days. Aphid mortality and fecundity was then visually assessed.

Data set [3] concerns Boll weevil (Anthonomus grandis). Briefly: Boll weevil control, 96-well microtiter plates with insect diet and eggs. To be noted: for mortality at 2500 ppm: Anthonomus grandis, 120 h, read-out: mortality (Egg and larval mortality). As to the method:
For evaluating control of boll weevil, the test unit consisted of 96-well-microtiter plates containing an insect diet and 5-10 A. grandis eggs.
The compounds were formulated using a solution containing 75% v/v water and 25% v/v DMSO. Different concentrations of formulated compounds were sprayed onto the insect diet at 5µl, using a custom-built micro atomizer, at two replications.
After application, microtiter plates were incubated at about 25 + 1°C and about 75 + 5 % relative humidity for 5 days. Egg and larval mortality were then visually assessed.

Data set [4] has as its system Yellow Fever Mosquito (Aedes aegypti). The data set is described as follows: whole plant or invertebrate. The following applies: 48 h, 2 days, in comparison with untreated controls, read-out: mortality (Larval mortality). As to the method: For evaluating control of Yellow Fever Mosquito the test unit consisted of 96-well-microtiter plates containing 200µl of tap water per well and 5-15 freshly hatched A. aegypti larvae. The active compounds were formulated using a solution containing 75% (v/v) water and 25% (v/v) DMSO. Different concentrations of formulated compounds or mixtures were sprayed onto the insect diet at 2.5µl, using a custom-built micro atomizer, at two replications.
After application, microtiter plates were incubated at 28 + 1°C, 80 + 5 % RH for 2 days. Larval mortality was then visually assessed.

The results in this text go back to EP4043444A1, “SUBSTITUTED ISOXAZOLINE DERIVATIVES” (priority 2021, dated 2022).

For “2-chloro-5-[[5-(3,5-dichloro-4-fluoro-phenyl)-5-(trifluoromethyl)-4H-isoxazol-3-yl]amino]-N-[1-(trifluoromethylsulfonyl)azetidin-3-yl]benzamide [I-99]”, the “mortality (Egg and larval mortality)” value is reported as “at least 75%” in data set [1] and “at least 75%” in data set [3] (2500ppm, sprayed onto insect diet, 5 days, in comparison with untreated controls). Also, in data set [2] (2500 ppm, pipetted into aphid diet, 3 days, in comparison with untreated controls), the “mortality (Aphid mortality)” value was “at least 75%”.

In the case of `O=C(Nc1ccc(F)cc1F)c1cc(NC2=NOC(c3cc(Cl)cc(Cl)c3)(C(F)(F)F)C2)ccc1Cl` (stereo not drawn) [I-2], the mortality at 2500 ppm in data set [4], in data set [1], in data set [2] and in data set [3] was no less than 75% each time.

Consider `N#CC1(NC(=O)c2cc(NC3=NOC(c4cc(Cl)cc(Cl)c4)(C(F)(F)F)C3)ccc2Cl)CC1` (stereo not drawn) [I-3], for which the mortality at 2500 ppm in data set [4], in data set [1], in data set [2] and in data set [3] was no less than 75% in each case.

As for `O=C(Nc1ccc(F)c(NC(=O)C(F)F)c1F)c1cc(NC2=NOC(c3cc(Cl)cc(Cl)c3)(C(F)(F)F)C2)ccc1Cl` (stereo not drawn) [I-5, 2-chloro-5-[[5-(3,5-dichlorophenyl)-5-(trifluoromethyl)-4H-isoxazol-3-yl]amino]-N-[3-[(2,2-difluoroacetyl)amino]-2,4-difluoro-phenyl]benzamide], the mortality at 2500 ppm in data set [4], in data set [1], in data set [2] and in data set [3] was no less than 75% throughout.

In the case of `CC(=O)Nc1c(F)ccc(NC(=O)c2cc(NC3=NOC(c4cc(Cl)cc(Cl)c4)(C(F)(F)F)C3)ccc2Cl)c1F` (stereo not drawn) [I-6], the mortality at 2500 ppm in data set [4], in data set [1], in data set [2] and in data set [3] was no less than 75% in each case.

Turning to `O=C(Nc1ccc(F)c(NC(=O)C(F)(F)Cl)c1F)c1cc(NC2=NOC(c3cc(Cl)cc(Cl)c3)(C(F)(F)F)C2)ccc1Cl` (stereo not drawn) [I-7], the mortality at 2500 ppm in data set [4], in data set [1], in data set [2] and in data set [3] was no less than 75% throughout.

Take `O=C(Nc1ccc(F)c(NC(=O)C(F)(F)F)c1F)c1cc(NC2=NOC(c3cc(Cl)cc(Cl)c3)(C(F)(F)F)C2)ccc1Cl` (stereo not drawn) [I-8]: the mortality at 2500 ppm in data set [4], in data set [1], in data set [2] and in data set [3] was no less than 75% each time.

As for `O=C(CC(F)(F)F)Nc1c(F)ccc(NC(=O)c2cc(NC3=NOC(c4cc(Cl)cc(Cl)c4)(C(F)(F)F)C3)ccc2Cl)c1F` (stereo not drawn) [I-9], the mortality at 2500 ppm in data set [4], in data set [1], in data set [2] and in data set [3] was no less than 75% throughout.

With `O=C(Nc1ccc(F)cc1F)c1cccc(NC2=NOC(c3cc(Cl)cc(Cl)c3)(C(F)(F)F)C2)c1F` (stereo not drawn) [I-13, 3-[[5-(3,5-dichlorophenyl)-5-(trifluoromethyl)-4H-isoxazol-3-yl]amino]-N-(2,4-difluorophenyl)-2-fluoro-benzamide], the mortality at 2500 ppm in data set [4], in data set [1], in data set [2] and in data set [3] was no less than 75% each time.

As to `O=C(Nc1ccc(F)cc1F)c1cc(NC2=NOC(c3cc(Cl)c(F)c(Cl)c3)(C(F)(F)F)C2)ccc1Cl` (stereo not drawn) [I-14], the mortality at 2500 ppm in data set [4], in data set [1], in data set [2] and in data set [3] was no less than 75% each time.

In the case of `COc1ccc(NC2=NOC(c3cc(Cl)cc(Cl)c3)(C(F)(F)F)C2)cc1C(=O)NC1CC1` (stereo not drawn) [I-170], the mortality at 2500 ppm in data set [4], in data set [1] and in data set [3] was no less than 75% each time.

On to `Cc1ccc(NC2=NOC(c3cc(Cl)cc(Cl)c3)(C(F)(F)F)C2)cc1C(=O)NCC(F)(F)F` (stereo not drawn) [I-176], for which the mortality at 2500 ppm in data set [4], in data set [1] and in data set [3] was no less than 75% each time.

For orientation: mortality means the share of the test organisms that died.
